Assay results published in PubChem BioAssay (NCI).
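Step 1: Grow cells in 96-well plates. Step 2: Expose to compound for 48 hours at 5 concentrations. Step 3: Interpolate endpoints linearly; if unreached, use highest concentration. GI50: concentration for 50% inhibition of growth. TGI: total growth inhibition.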

Tests used:
Assay in all cases: NCI tumour cell line growth inhibition, 48 h
A549 NSCLC = test system: A549 NSCLC
NCI-H226 lung = test system: NCI-H226 lung
CCRF-CEM leukemia = test system: CCRF-CEM leukemia
UACC-62 melanoma = test system: UACC-62 melanoma
HT29 colon = test system: HT29 colon
HOP-92 NSCLC = test system: HOP-92 NSCLC
MCF7 breast = test system: MCF7 breast
HCT-116 colon = test system: HCT-116 colon
U251 CNS = test system: U251 CNS
HCT-15 colon = test system: HCT-15 colon
DU-145 prostate = test system: DU-145 prostate
RPMI-8226 leukemia = test system: RPMI-8226 leukemia
A498 renal = test system: A498 renal
HL-60(TB) leukemia = test system: HL-60(TB) leukemia
K-562 leukemia = test system: K-562 leukemia
PC-3 prostate = test system: PC-3 prostate
KM12 colon = test system: KM12 colon
SF-539 CNS = test system: SF-539 CNS
MALME-3M melanoma = test system: MALME-3M melanoma
SK-MEL-28 melanoma = test system: SK-MEL-28 melanoma
SR leukemia = test system: SR leukemia
SN12C renal = test system: SN12C renal
SF-295 CNS = test system: SF-295 CNS
OVCAR-8 ovarian = test system: OVCAR-8 ovarian
HCC-2998 colon = test system: HCC-2998 colon
NCI/ADR-RES ovarian = test system: NCI/ADR-RES ovarian
TK-10 renal = test system: TK-10 renal
MDA-MB-231 breast = test system: MDA-MB-231 breast
MOLT-4 leukemia = test system: MOLT-4 leukemia
ACHN renal = test system: ACHN renal
EKVX NSCLC = test system: EKVX NSCLC
SW-620 colon = test system: SW-620 colon
NCI-H522 lung = test system: NCI-H522 lung
UACC-257 melanoma = test system: UACC-257 melanoma
LOX IMVI melanoma = test system: LOX IMVI melanoma
SF-268 CNS = test system: SF-268 CNS
COLO 205 colon = test system: COLO 205 colon
NCI-H23 lung = test system: NCI-H23 lung
SK-MEL-2 melanoma = test system: SK-MEL-2 melanoma
SNB-75 CNS = test system: SNB-75 CNS
IGROV1 ovarian = test system: IGROV1 ovarian
SNB-19 CNS = test system: SNB-19 CNS
SK-MEL-5 melanoma = test system: SK-MEL-5 melanoma
M14 melanoma = test system: M14 melanoma
MDA-MB-435 = test system: MDA-MB-435
OVCAR-3 ovarian = test system: OVCAR-3 ovarian
OVCAR-5 ovarian = test system: OVCAR-5 ovarian
RXF 393 renal = test system: RXF 393 renal
HOP-62 NSCLC = test system: HOP-62 NSCLC
UO-31 renal = test system: UO-31 renal
OVCAR-4 ovarian = test system: OVCAR-4 ovarian
HS 578T breast = test system: HS 578T breast
T-47D breast = test system: T-47D breast
CAKI-1 renal = test system: CAKI-1 renal

## O=C(Nc1ccc(-n2ccc3c(NC(=O)c4ccccc4)ncnc32)cc1)Nc1cccc(Cl)c1Cl
A549 NSCLC
  GI50: 952 nM
  TGI: 2220 nM
NCI-H226 lung
  GI50: 1070 nM
  TGI: 4870 nM
CCRF-CEM leukemia
  GI50: 531 nM
  TGI: 3210 nM
UACC-62 melanoma
  GI50: 1020 nM
  TGI: 3290 nM
HT29 colon
  GI50: 808 nM
  TGI: 2110 nM
HOP-92 NSCLC
  GI50: 847 nM
  TGI: 2480 nM
MCF7 breast
  GI50: 1120 nM
  TGI: 5810 nM
HCT-116 colon
  GI50: 673 nM
  TGI: 2380 nM
U251 CNS
  GI50: 571 nM
  TGI: 1400 nM
HCT-15 colon
  GI50: 156 nM
  TGI: 5420 nM
DU-145 prostate
  GI50: 1470 nM
  TGI: 3850 nM
RPMI-8226 leukemia
  GI50: 646 nM
  TGI: 2760 nM
A498 renal
  GI50: 752 nM
  TGI: 2040 nM
HL-60(TB) leukemia
  GI50: 13600 nM
  TGI: > 50000 nM
K-562 leukemia
  GI50: 985 nM
  TGI: 6040 nM
PC-3 prostate
  GI50: 582 nM
  TGI: 1570 nM
KM12 colon
  GI50: 1150 nM
  TGI: 6570 nM
SF-539 CNS
  GI50: 1120 nM
  TGI: 5690 nM
MALME-3M melanoma
  GI50: 1040 nM
  TGI: 4130 nM
SK-MEL-28 melanoma
  GI50: 990 nM
  TGI: 2450 nM
SR leukemia
  GI50: 659 nM
  TGI: 2920 nM
SN12C renal
  GI50: 1080 nM
  TGI: 2320 nM
SF-295 CNS
  GI50: 2220 nM
  TGI: > 50000 nM
OVCAR-8 ovarian
  GI50: 1070 nM
  TGI: 2600 nM
HCC-2998 colon
  GI50: 2990 nM
  TGI: 19900 nM
NCI/ADR-RES ovarian
  GI50: 1580 nM
  TGI: 7290 nM
TK-10 renal
  GI50: 1010 nM
  TGI: 2340 nM
MDA-MB-231 breast
  GI50: 1020 nM
  TGI: 3050 nM
MOLT-4 leukemia
  GI50: 1710 nM
  TGI: > 50000 nM
ACHN renal
  GI50: 1350 nM
  TGI: 4060 nM
EKVX NSCLC
  GI50: 1300 nM
  TGI: 4590 nM
SW-620 colon
  GI50: 998 nM
  TGI: 2360 nM
NCI-H522 lung
  GI50: 972 nM
  TGI: 3110 nM
UACC-257 melanoma
  GI50: 2150 nM
  TGI: 7700 nM
LOX IMVI melanoma
  GI50: 763 nM
  TGI: 2040 nM
SF-268 CNS
  GI50: 1100 nM
  TGI: 3130 nM
COLO 205 colon
  GI50: 1750 nM
  TGI: 7970 nM
NCI-H23 lung
  GI50: 1640 nM
  TGI: 11000 nM
SK-MEL-2 melanoma
  GI50: 1330 nM
  TGI: 3880 nM
SNB-75 CNS
  GI50: 777 nM
  TGI: 2710 nM
IGROV1 ovarian
  GI50: 1060 nM
  TGI: 3390 nM
SNB-19 CNS
  GI50: 1440 nM
  TGI: 5840 nM
SK-MEL-5 melanoma
  GI50: 1350 nM
  TGI: 9990 nM
M14 melanoma
  GI50: 973 nM
  TGI: 2110 nM
MDA-MB-435
  GI50: 1530 nM
  TGI: 8640 nM
OVCAR-3 ovarian
  GI50: 1190 nM
  TGI: 2750 nM
OVCAR-5 ovarian
  GI50: 1040 nM
  TGI: 2840 nM
RXF 393 renal
  GI50: 796 nM
  TGI: 1790 nM
HOP-62 NSCLC
  GI50: 983 nM
  TGI: 2150 nM
UO-31 renal
  GI50: 786 nM
  TGI: 1560 nM
OVCAR-4 ovarian
  GI50: 878 nM
  TGI: 1910 nM
HS 578T breast
  GI50: 856 nM
  TGI: 2600 nM
T-47D breast
  GI50: 2170 nM
  TGI: 9220 nM
CAKI-1 renal
  GI50: 3840 nM
  TGI: 24900 nM
